Results taken from patent US9174992B2, “Heterobicyclic compounds” (Amgen Inc., priority 2012, dated 2015).
Values joined by “and” are separate entries in the source; they are usually repeats but may differ in a detail not shown here. Equal entries are not always repeated.

Each compound was assayed against PDE10A (UniProt Q9Y233) (assay: PDE10 enzyme inhibition, IMAP TR-FRET assay (Example A, MPDE10A7 Enzyme Activity and Inhibition)). Settings: approximate IC50 value, Table 10.
Assay type: biochemical
Protocol: Enzyme Activity. An IMAP TR-FRET assay was used to analyze the enzyme activity (Molecular Devices Corp., Sunnyvale Calif.). 10 μL of serial diluted PDE10A (BPS Bioscience, San Diego, Calif.) or tissue homogenate was incubated with equal volumes of diluted fluorescein labeled cAMP or cGMP for 90 min in 384-well Polypropylene assay plates (Greiner, Monroe, N.C.) at room temperature. After incubation, the reaction was stopped by adding 55 μL of diluted binding reagents and was incubated for 4 hours to overnight at room temperature. The plates were read on an Envision (Perkin Elmer, Waltham, Mass.) for time resolved fluorescence resonance energy transfer. The data were analyzed with Genedata Screener® (Lexington, Mass.).
Enzyme Inhibition. To check the inhibition profile, 0.2 μL of serial diluted compounds were incubated with 10 μL of diluted PDE10 enzyme (BPS Bioscience, San Diego, Calif.) or tissue homogenate in a 384-well Polypropylene assay plate (Greiner, Monroe, N.C.) for 60 min at room temperature. After incubation, 10 μL of diluted fluorescein labeled cAMP or cGMP substrate were added and incubated for 90 min at room temperature. The reaction was stopped by adding 55 μL of diluted binding reagents and plates were read on an Envision (Perkin Elmer, Waltham, Mass.) for time resolved fluorescence resonance energy transfer. The data were analyzed with Genedata Screener® (Lexington, Mass.).
IC50 curves were generated from the raw data collected from the […] and fitted with a four-parameter logistic equation using in-house data analysis tool, Activity Base.

Row | Compound | IC50
1 | Cc1ccnc(N[C@H]2C[C@H](N3C(=O)C(C)(C)c4cccnc43)C2)c1 [Example 51, 1-(Trans-3-((4-methylpyridin-2-yl)amino)cyclobutyl)-3,3-dimethyl-1H-pyrrolo[2,3-b]pyridin-2(3H)-one] | 4.85 nM
2 | CC1(C)C(=O)N([C@H]2C[C@H](Nc3ncccc3F)C2)c2ncccc21 [Example 52, 1-(Trans-3-((3-fluoropyridin-2-yl)amino)cyclobutyl)-3,3-dimethyl-1H-pyrrolo[2,3-b]pyridin-2(3H)-one] | 5.69 nM
3 | Cc1cccnc1N[C@H]1C[C@H](N2C(=O)C(C)(C)c3cccnc32)C1 [Example 53, 1-(Trans-3-((3-methylpyridin-2-yl)amino)cyclobutyl)-3,3-dimethyl-1H-pyrrolo[2,3-b]pyridin-2(3H)-one] | 5.7 nM
4 | CC1(C)C(=O)N([C@H]2C[C@H](Nc3ccc(F)cn3)C2)c2ncccc21 [Example 54, 1-(Trans-3-((5-fluoropyridin-2-yl)amino)cyclobutyl)-3,3-dimethyl-1H-pyrrolo[2,3-b]pyridin-2(3H)-one] | 6.47 nM
5 | CC1(C)C(=O)N([C@H]2C[C@H](Nc3nccs3)C2)c2ncccc21 [Example 55, 3,3-Dimethyl-1-(trans-3-(thiazol-2-ylamino)cyclobutyl)-1H-pyrrolo[2,3-b]pyridine-2(3H)-one] | 7.43 nM
6 | CC(=O)Nc1ccc(N[C@H]2C[C@H](N3C(=O)C(C)(C)c4cccnc43)C2)nc1 [Example 56, N-(6-((Trans-3-(3,3-dimethyl-2-oxo-2,3-dihydro-1H-pyrrolo[2,3-b]pyridine-1-yl)cyclobutyl)amino)pyridine-3-yl)acetamide] | 8.42 nM
7 | CC1(C)C(=O)N([C@H]2C[C@H](Nc3ncccc3Cl)C2)c2ncccc21 [Example 57] | 11 nM
8 | COc1ccnc(N[C@H]2C[C@H](N3C(=O)C(C)(C)c4cccnc43)C2)n1 [Example 58, 1-(trans-3-((4-methoxypyrimidin-2-yl)amino)cyclobutyl)-3,3-dimethyl-1H-pyrrolo[2,3-b]pyridin-2(3H)-one] | 13 nM
9 | CC1(C)C(=O)N([C@H]2C[C@H](Nc3ccc(C#N)cn3)C2)c2ncccc21 [Example 59, 1-(Trans-3-((5-cyanopyridin-2-yl)amino)cyclobutyl)-3,3-dimethyl-1H-pyrrolo[2,3-b]pyridin-2(3H)-one] | 15.9 nM
10 | CC1(C)C(=O)N([C@H]2C[C@H](Nc3ncc(Br)cn3)C2)c2ncccc21 [Example 60, 1-(Trans-3-((5-bromopyrimidin-2-yl)amino)cyclobutyl)-3,3-dimethyl-1H-pyrrolo[2,3-b]pyridin-2(3H)-one] | 19.3 nM
11 | CC1(C)C(=O)N([C@H]2C[C@H](Nc3ncc(Cl)cn3)C2)c2ncccc21 [Example 61, 1-(trans-3-((5-chloropyrimidin-2-yl)amino)cyclobutyl)-3,3-dimethyl-1H-pyrrolo[2,3-b]pyridin-2(3H)-one] | 30.4 nM
12 | Cc1ccnc(N[C@H]2C[C@H](N3C(=O)C(C)(C)c4cccnc43)C2)n1 [Example 63, 1-(trans-3-((4-methylpyrimidin-2-yl)amino)cyclobutyl)-3,3-dimethyl-1H-pyrrolo[2,3-b]pyridin-2(3H)-one] | 38.6 nM
13 | CC1(C)C(=O)N([C@H]2C[C@H](Nc3nccc(Cl)n3)C2)c2ncccc21 [Example 64, 1-(trans-3-((4-chloropyrimidin-2-yl)amino)cyclobutyl)-3,3-dimethyl-1H-pyrrolo[2,3-b]pyridin-2(3H)-one] | 43.3 nM
14 | CC1(C)C(=O)N([C@H]2C[C@H](Nc3cnccn3)C2)c2ncccc21 [Example 65, 3,3-Dimethyl-1-(trans-3-(pyrazin-2-ylamino)cyclobutyl)-1H-pyrrolo[2,3-b]pyridine-2(3H)-one] | 44.8 nM
15 | CC1(C)C(=O)N([C@H]2C[C@H](Nc3cccc(Cl)n3)C2)c2ncccc21 [Example 66, 1-(trans-3-((6-chloropyridin-2-yl)amino)cyclobutyl)-3,3-dimethyl-1H-pyrrolo[2,3-b]pyridin-2(3H)-one] | 51.1 nM
16 | CC1(C)C(=O)N([C@H]2C[C@H](Nc3nccc(C(F)(F)F)n3)C2)c2ncccc21 [Example 67] | 35.6 nM and 59 nM
17 | CC1(C)C(=O)N([C@H]2C[C@H](Nc3cccnn3)C2)c2ncccc21 [Example 68, 3,3-Dimethyl-1-(trans-3-(pyridazin-3-ylamino)cyclobutyl)-1H-pyrrolo[2,3-b]pyridine-2(3H)-one] | 158 nM
18 | CC1(C)C(=O)N([C@H]2C[C@H](Nc3nc(-c4ccccc4)cs3)C2)c2ncccc21 [Example 69, 3,3-Dimethyl-1-(trans-3-((4-phenylthiazol-2-yl)amino)cyclobutyl)-1H-pyrrolo[2,3-b]pyridine-2(3H)-one] | 167 nM
19 | CC1(C)C(=O)N([C@H]2C[C@H](Nc3ncc(C(F)(F)F)cn3)C2)c2ncccc21 [Example 70, 1-(trans-3-((5-(trifluoromethyl)pyrimidin-2-yl)amino)cyclobutyl)-3,3-dimethyl-1H-pyrrolo[2,3-b]pyridin-2(3H)-one] | 180 nM

More lines, now with the values ahead:

Row | IC50 | Compound
20 | 0.115 nM | O=C1N([C@H]2C[C@H](Nc3nc4ccccc4s3)C2)c2ncccc2C12CCC2 [Example 35, 1′-(trans-3-(benzo[d]thiazol-2-ylamino)cyclobutyl)spiro[cyclobutane-1,3′-pyrrolo[2,3-b]pyridin]-2′(1′H)-one]
21 | 0.134 nM | O=C1N([C@H]2C[C@H](Nc3nc4ccccc4s3)C2)c2ncccc2C12CCCC2 [Example 36, 1′-(Trans-3-(benzo[d]thiazol-2-ylamino)cyclobutyl)spiro[cyclopentane-1,3′-pyrrolo[2,3-b]pyridin]-2′(1′H)-one]
22 | 0.14 nM | O=C1N([C@H]2C[C@H](Nc3nc4ccccc4s3)C2)c2ncccc2C12CCOCC2 [Example 37, 1′-(Trans-3-(benzo[d]thiazol-2-ylamino)cyclobutyl)-2,3,5,6-tetrahydrospiro[pyran-4,3′-pyrrolo[2,3-b]pyridin]-2′(1′H)-one]
23 | 0.166 nM | Cc1ccc(N[C@H]2C[C@H](N3C(=O)C(C)(C)c4cccnc43)C2)nc1 [Example 38, 3,3-Dimethyl-1-(trans-3-(5-methylpyridin-2-yl)amino)cyclobutyl-1H-pyrrolo[2,3-b]pyridin-2(3H)-one]
24 | 0.212 nM | COc1ccc(N[C@H]2C[C@H](N3C(=O)C(C)(C)c4cccnc43)C2)nc1 [Example 39]
25 | 0.263 nM | CC1(C)C(=O)N([C@H]2C[C@H](Nc3ccc(Br)cn3)C2)c2ncccc21 [Example 40, 1-(Trans-3-((5-bromopyridin-2-yl)amino)cyclobutyl)-3,3-dimethyl-1H-pyrrolo[2,3-b]pyridin-2(3H)-one]
26 | 0.329 nM | CC1(C)C(=O)N([C@H]2C[C@H](Nc3ccc(C4CC4)cn3)C2)c2ncccc21 [Example 41, 1-(Trans-3-((5-cyclopropylpyridin-2yl)amino)cyclobutyl)-3,3-dimethyl-1H-pyrrolo[2,3-b]pyridin-2(3H)-one]
27 | 0.856 nM | CC1(C)C(=O)N([C@H]2C[C@H](Nc3ccc(Cl)cn3)C2)c2ncccc21 [Example 42, 1-(Trans-3-((5-chloropyridin-2-yl)amino)cyclobutyl)-3,3-dimethyl-1H-pyrrolo[2,3-b]pyridin-2(3H)-one]
28 | 1.57 nM | CC(=O)c1ccc(N[C@H]2C[C@H](N3C(=O)C(C)(C)c4cccnc43)C2)nc1 [Example 43, 1-(trans-3-((5-acetylpyridin-2-yl)amino)cyclobutyl)-3,3-dimethyl-1H-pyrrolo[2,3-b]pyridin-2(3H)-one]
29 | 2.44 nM | O=C1Cc2cccnc2N1[C@H]1C[C@H](Nc2nc3ccccc3s2)C1 [Example 44, 1-(trans-3-(benzo[d]thiazol-2-ylamino)cyclobutyl)-1H-pyrrolo[2,3-b]pyridin-2(3H)-one]
30 | 2.52 nM | COc1cccnc1N[C@H]1C[C@H](N2C(=O)C(C)(C)c3cccnc32)C1 [Example 45, 1-(Trans-3-((3-methoxypyridin-2-yl)amino)cyclobutyl)-3,3-dimethyl-1H-pyrrolo[2,3-b]pyridin-2(3H)-one]
31 | 2.53 nM | CC1(C)C(=O)N([C@H]2C[C@H](Nc3ccc(C(F)(F)F)cn3)C2)c2ncccc21 [Example 46, 1-(Trans-3-((5-trifuoromethylpyridin-2-yl)amino)cyclobutyl)-3,3-dimethyl-1H-pyrrolo[2,3-b]pyridin-2(3H)-one]
32 | 2.64 nM | CCc1cnc(N[C@H]2C[C@H](N3C(=O)C(C)(C)c4cccnc43)C2)nc1 [Example 47, 1-(trans-3-((5-ethylpyrimidin-2-yl)amino)cyclobutyl)-3,3-dimethyl-1H-pyrrolo[2,3-b]pyridin-2(3H)-one]
33 | 3.46 nM | Cc1cnc(N[C@H]2C[C@H](N3C(=O)C(C)(C)c4cccnc43)C2)nc1 [Example 48, 1-(trans-3-((5-methylpyrimidin-2-yl)amino)cyclobutyl)-3,3-dimethyl-1H-pyrrolo[2,3-b]pyridin-2(3H)-one]
34 | 3.88 nM | CC1(C)C(=O)N([C@H]2C[C@H](Nc3ccc(Cl)cn3)C2)c2nccnc21 [Example 49]
35 | 4.63 nM | COc1ccc(N(c2ccc(OC)cn2)[C@H]2C[C@H](N3C(=O)C(C)(C)c4cccnc43)C2)nc1 [Example 50, 1-(trans-3-(BIS(5-methoxypyridin-2-yl)amino)cyclobutyl)-3,3-dimethyl-1H-pyrrolo[2,3-b]pyridin-2(3H)-one]
